Consider 2 compounds from PMC12022909, “A Multicomponent Reaction-Based Platform Opens New Avenues in Aryl Hydrocarbon Receptor Modulation” (ACS Central Science, 2025).

In one data set the test system is HaCaT cells. On the set-up: method as in PMID 25431849, PMID 34418602. The settings on record: cited from earlier work.
Data set [1] addresses T1, aryl hydrocarbon receptor (AhR) (Homo sapiens, UniProt P35869).
T1 construct: AhR-dependent reporter gene activity was determined in human HepG2 cells stably transfected with an XRE; endogenous in cells; host or cells: XRE-HepG2 (human HepG2 hepatoma cells stably carrying an XRE-luciferase plasmid)
T1 sequence (P35869 11-848): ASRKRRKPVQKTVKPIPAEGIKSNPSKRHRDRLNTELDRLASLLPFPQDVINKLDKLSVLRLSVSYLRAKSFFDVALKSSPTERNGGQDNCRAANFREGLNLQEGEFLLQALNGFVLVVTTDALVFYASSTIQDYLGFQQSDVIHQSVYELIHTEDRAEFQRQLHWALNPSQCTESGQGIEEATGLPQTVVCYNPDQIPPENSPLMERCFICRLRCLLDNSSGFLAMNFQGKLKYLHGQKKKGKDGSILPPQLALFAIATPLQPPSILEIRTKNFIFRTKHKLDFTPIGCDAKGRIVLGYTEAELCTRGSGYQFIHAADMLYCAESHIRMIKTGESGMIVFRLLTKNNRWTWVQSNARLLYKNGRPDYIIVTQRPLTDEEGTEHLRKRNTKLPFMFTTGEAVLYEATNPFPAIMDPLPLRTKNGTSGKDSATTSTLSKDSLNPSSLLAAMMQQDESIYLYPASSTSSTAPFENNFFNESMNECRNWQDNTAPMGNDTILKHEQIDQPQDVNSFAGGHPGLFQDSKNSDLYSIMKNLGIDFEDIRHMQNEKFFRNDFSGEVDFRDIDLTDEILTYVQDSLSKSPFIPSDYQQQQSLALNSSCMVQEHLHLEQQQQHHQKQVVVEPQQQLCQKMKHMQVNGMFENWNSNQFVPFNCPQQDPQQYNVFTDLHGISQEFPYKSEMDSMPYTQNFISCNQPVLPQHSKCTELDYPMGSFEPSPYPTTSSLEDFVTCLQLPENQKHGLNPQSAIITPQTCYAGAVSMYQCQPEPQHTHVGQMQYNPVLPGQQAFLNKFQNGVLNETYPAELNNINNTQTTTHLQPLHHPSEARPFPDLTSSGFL
The experiment in a line: AhR/XRE-dependent luciferase reporter gene assay in XRE-HepG2 cells. The settings on record: XRE-HepG2 cells, 8 h; unit as in the supplements; read-out: AhR/XRE-dependent luciferase activity EC50. It counts as cell-based. (In general: In a reporter assay the amount or activity of a reporter protein is the signal.)
Protocol: (f) AhR/XRE-dependent reporter gene activity results (EC50/μM).
Data are shown as mean ± SEM.
The human XRE -HepG2 reporter cell -line was a kind gift of K. Gradin and L. Poellinger (Karolinska Institute, Stockholm,
antibiotic/antimycotic solution, and 0.8 mg/ml G418. All cells were cultivated at 37 °C in a humidified atmosphere containing 5% CO 2.
AhR-dependent reporter gene activity was determined in human HepG2 cells stably transfected with an XRE -harboring luciferase plasmid (XRE-HepG2 cells). […] Luciferase activity was normalized to protein content.

The next data set deals with T2, AhR-GFP (Homo sapiens, UniProt P35869).
T2 construct: host or cells: MCF7, lentiviral transduction
T2 sequence (P08238 whole entry partner, one chain of several): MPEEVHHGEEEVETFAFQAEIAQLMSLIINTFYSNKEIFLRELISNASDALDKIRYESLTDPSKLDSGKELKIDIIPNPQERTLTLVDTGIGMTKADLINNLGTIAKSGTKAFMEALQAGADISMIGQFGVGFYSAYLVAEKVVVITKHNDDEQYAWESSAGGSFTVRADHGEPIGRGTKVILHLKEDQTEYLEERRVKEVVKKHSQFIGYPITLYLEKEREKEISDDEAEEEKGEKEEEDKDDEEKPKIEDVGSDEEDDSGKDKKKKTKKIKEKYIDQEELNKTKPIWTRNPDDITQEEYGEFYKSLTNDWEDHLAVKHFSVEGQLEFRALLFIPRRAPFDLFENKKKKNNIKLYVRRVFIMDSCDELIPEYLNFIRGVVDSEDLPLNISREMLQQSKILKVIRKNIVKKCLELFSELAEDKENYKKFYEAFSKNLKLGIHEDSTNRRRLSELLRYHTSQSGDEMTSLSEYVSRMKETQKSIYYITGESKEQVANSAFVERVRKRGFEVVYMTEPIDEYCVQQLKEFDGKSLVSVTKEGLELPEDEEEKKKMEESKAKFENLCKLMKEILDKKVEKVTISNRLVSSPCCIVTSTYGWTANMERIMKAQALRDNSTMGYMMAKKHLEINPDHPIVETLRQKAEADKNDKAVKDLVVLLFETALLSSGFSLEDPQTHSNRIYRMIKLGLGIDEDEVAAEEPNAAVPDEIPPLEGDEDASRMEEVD
T2 sequence (O00170 whole entry partner, one chain of several): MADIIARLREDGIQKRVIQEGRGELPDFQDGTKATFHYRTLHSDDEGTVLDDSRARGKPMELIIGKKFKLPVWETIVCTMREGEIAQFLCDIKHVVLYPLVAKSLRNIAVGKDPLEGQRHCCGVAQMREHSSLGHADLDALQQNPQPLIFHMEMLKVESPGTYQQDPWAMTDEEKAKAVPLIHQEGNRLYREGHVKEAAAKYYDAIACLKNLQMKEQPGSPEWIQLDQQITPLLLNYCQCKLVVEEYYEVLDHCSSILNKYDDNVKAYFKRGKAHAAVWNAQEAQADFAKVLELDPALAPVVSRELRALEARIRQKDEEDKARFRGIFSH
The experiment in a line: MCF7 AhR-GFP.IRES.mCherry reporter, flow cytometry quantification of AhR protein levels. The data set is classed as cell-based. The settings on record: 5 μM, 5 h. The procedure: (§1) Figure 6 Bifunctional AhR probes and AhR reporter in MCF7 cells. (a) Synthetic access to the conjugatable AhR ligand 5m. (b) Structure, yield, and EC50 value of the model amide 12a and MD simulation of AhR with 12a (last snapshot). (c) PROTAC-like compound 12b and dual probes 12c–d. Reaction conditions: (a) 5m (1 equiv), amine (1 equiv), HATU, DIPEA, DMF, rt, 24 h, Ar atm; (b) 5m (2 equiv), diamine (1 equiv), HATU, DIPEA, DMF, rt, 24 h, Ar atm. (d) General setup of the reporter system for quantifying AhR protein levels. (e) The population of MCF7 reporter cells (MCF7 AhR-GFP.IRES.mCherry) gated by flow cytometry and used for quantification of AhR. […] Values represent the ratio of the geometric mean of GFP and mCherry values in the gated population. (g) Change in protein levels relative to vehicle treatment (DMSO) in MCF7 cells treated with 12b at 10 μM for 5 h quantified by TMT labeling and LC/MS analysis versus p-Value. TEXT PRINTED IN THE PICTURE: (b) 12a: EC50 = 0.40 μM […]
To test the effect of these compounds on AhR abundance, we established a cellular reporter in the breast cancer cell line MCF7. AhR in this case is fused to GFP bearing an independently translated mCherry on the same transcript to allow correction for general transcriptional interference of treatments (Figure 6d,e). […]
(A flow cytometer gives signals particle by particle.)

The target of a further data set is T3, AhR (Homo sapiens, UniProt P35869).
T3 construct: Degradation of endogenous AhR was further confirmed via Western blotting and global proteomics measurements in cells treated with 12b; host or cells: MCF7
T3 sequence (P35869 11-848): T1 sequence (P35869 11-848)
The experiment in a line: Global proteomics (TMT labeling, LC/MS) in MCF7 cells. It counts as cell-based. The settings on record: 10 μM, 5 h. The procedure: as §1
Generation of reporter cell lines
The MCF7.AhR-GFP.IRES.mCherry and MCF7.AhRdPasB(d275-342)-GFP.IRES.mCherryreporter cell line was generated via lentivirus transduction. The coding sequence of the full length AhR (NM_001621.5), as well as the PasB deleted AhR (d275-342) were synthesized and cloned into a Lenti virus transfer plasmid (Artichoke, Addgene #73320), with hereby the resistance was swapped from puromycin to hygromycin. To produce the virus, 550k Lenti-X 293T cells (Takeda #632180) were seeded in a six-well plate with 3 mL of growth medium. The following day, a plasmid solution containing psPAX2 (500 ng), pVSV-G (5 ng), and AhR transfer plasmid (500 ng) was diluted in 21.5 μL of OPTIMEM, reaching a total volume of 32.5 μL. […]
For the flow cytometry experiments 150k cells were seeded in a 24 well-plate format in 0.5 mL growing medium and left to grow in the incubator for 16 h. […] They were subsequently measured on a BD LSR II and the data analyzed with FlowJo software (version 10.5.3, TreeStar). […]

For 6-formylindolo[3,2-b]carbazole [FICZ], the UVA photosensitization entry with HaCaT cells was “nanomolar sensitizer for UVA radiation”.

With `O=C1CCC(N2C(=O)c3cccc(OCCOCCOCCOCCNC(=O)c4ccc5c(-c6c7[nH]c8ccccc8c7cc7[nH]c8ccccc8c67)c[nH]c5c4)c3C2=O)C(=O)N1` (stereo not drawn) [12b], the EC50 in data set [1] stood at 200 nM. Besides, the “AhR degradation in reporter system” value at AhR-GFP is “pronounced AhR degradation”. Also, at AhR, the “degradation of common CRBN-thalidomide off-target factors (zinc finger proteins, GSPT1)” value is reported as “absence of degradation”; the “induced transcriptional activity (CYP1A1 and CYP1B1 protein levels)” value is “upregulation of CYP1A1 and CYP1B1”; the “selectivity of protein degradation” value is listed as “selectivity for AhR degradation”.
